Measurements: paper PMC7822874, “Chemoprotective antimalarials identified through quantitative high-throughput screening of Plasmodium blood and liver stage parasites” (Scientific Reports, 2021)
Read-outs that look alike come from different tables or passages of the source.

Tested on: Plasmodium falciparum Dd2 asexual blood stage parasites
Assay: microbe, parasite or virus in culture
Set-up: species or system Plasmodium falciparum Dd2 in human erythrocytes; single determination (one 11-point concentration-response curve)
Details: Plasmodium falciparum, DD2, Erythrocyte, 72 h

Row | Structure (SMILES) | AC50 (read-out: AC50) [µM] | AC50 [µM]
1 | CCOC(=O)c1sc(NC(=O)C(C)Sc2nc(-c3ccccc3)cc(C(F)(F)F)n2)c(C(=O)OC)c1C (centres unmarked) [NCGC00101272-01] | 2.37 | 
2 | COc1cc(NC(=O)Cn2ncc3c(=O)oc4ccccc4c32)cc(OC)c1OC [NCGC00108571-01] | 2.66 | 
3 | O=C(c1nnc(CNc2ccncc2)n1-c1ccccc1)N1CCC[C@@H]1C(c1ccccc1)c1ccccc1 [NCGC00415781-01] | 10.6 | 
4 | O=C(CCC1CCCN(Cc2cccn2-c2cccnc2)C1)Nc1ccccc1F (centres unmarked) [NCGC00427855-01] | 6.68 | 
5 | COC(=O)CC1Oc2ccc(Cl)cc2-n2cc(-c3ccc(F)cc3)nc21 (centres unmarked) [NCGC00164810-01] | 4.22 | 
6 | COCC1CN(Cc2cccc(OC(F)(F)F)c2)CC12CCNCC2 (centres unmarked) [NCGC00461844-01] | 15 | 
7 | O=C1CO[C@H]2CCN(Cc3ccc4c(c3)CCO4)CC[C@@H]2N1Cc1ccccc1 [NCGC00409937-01] | 17.2 | 
8 | CCN(CC)CCNC(=O)C12CCCC=C1N(Cc1ccccc1)C(=O)CC2 (centres unmarked) [NCGC00472142-01] | 8.41 | 
9 | O=C(NC1=C(Nc2ccc(F)cc2)C(=O)c2ccccc2C1=O)c1ccc(Cl)cc1 [MLS000375026-01] | 0.841 | 
10 | O=S(=O)(c1ccc(F)cc1)N1CCN(/C(S)=N/CC2CCCO2)CC1 (centres unmarked) [MLS001148319-01] | 6.68 | 
11 | c1ccc(-c2nc(-c3ccncc3)no2)c(OC2CCN(C3CCCC3)C2)c1 (centres unmarked) [NCGC00458106-01] | 15 | 
12 | Cc1nc(CN2C(=O)OC3(CCN(C(=O)Cc4ccc5c(c4)OCO5)CC3)C2(C)c2ccccc2)cs1 (centres unmarked) [NCGC00415487-01] | 2.11 | 
13 | Cc1ccccc1OCCn1cc(C(=O)c2ccco2)c2ccccc21 [NCGC00101854-01] | 5.31 | 
14 | COCCNc1cc(N2CCN(C3CCCCC3)CC2)c2noc3c2c1C(=O)c1ccccc1-3 [NCGC00111067-01] | 15 | 
15 | Cc1ccc(C)c(CN2C(=O)c3ccccc3[S+](=O)([O-])c3ccc(C(=O)NCCc4ccc(Cl)cc4)cc32)c1 [NCGC00109793-01] | 7.5 | 
16 | CCCCNC(=O)c1onc(CSc2nc3ccccc3[nH]2)c1C(=O)NCCCC [MLS000561096-01] | 5.31 | 
17 | COc1ccccc1N1CCN(CCCNC(=O)c2cnn(-c3cccc(Cl)c3)c2C2CCN(C(=O)OC(C)(C)C)CC2)CC1 [NCGC00126882-01] | 2.11 | 
18 | Cc1ccc(Cl)cc1N1CCN(C(=O)c2ccc3c(c2)N(Cc2ccccc2F)C(=O)c2ccccc2[S+]3(=O)[O-])CC1 [NCGC00109582-01] | 5.31 | 
19 | CCOc1ccc(/C=C/C(=O)Nc2ccc3nc(N(CC)CC)cc(C)c3c2)cc1OC [NCGC00104284-01] | 1.88 | 
20 | Cc1ccc(CSC2=Nc3ccccc3C3=NC(CC(=O)NCc4ccco4)C(=O)N23)cc1 (centres unmarked) [MLS000094891-01] | 6.68 | 
21 | CCc1c(C)c(C#N)c2nc3ccccc3n2c1NCC1CCCO1 (centres unmarked) [MLS000556827-01] | 2.99 | 
22 | CCOC(=O)c1cc(C)n(CC2CCC(C(=O)Nc3cccc(Cl)c3)CC2)c1C (centres unmarked) [NCGC00141645-01] | 8.41 | 
23 | CC(C(=O)c1c[nH]c2ccccc12)N1CCN(C(=O)c2ccco2)CC1 (centres unmarked) [MLS000768379-01] |  | 5.96
24 | COc1ccc2cc1Nc1ccc(cc1)C[C@H](NC(=O)c1ccc(Oc3ccccc3)cc1)C(=O)N(C)[C@@H](C(=O)Nc1ccccc1)C2 [NCGC00410310-01] | 2.11 | 
25 | CC(=O)NCCC(=O)Nc1cc(S(=O)(=O)N2CCCCC2)ccc1N1CCCCC1 [MLS002181171-01] | 7.5 | 
26 | COc1cc2nc(NCCc3cccc(C)c3)n3nc(-c4ccccc4)nc3c2cc1OC [NCGC00112859-01] | 0.841 | 

Row | Structure (SMILES) | AC50 (read-out: AC50) [µM] | AC50 [µM]
27 | COc1cccc(/C(C#N)=C/c2c(-c3ccc(Cl)cc3)nc3c(C)cccn23)c1 [MLS000326878-01] | 5.96 | 
28 | CN1CCN(Cc2nnc(C(=O)N3CCC[C@@H]3c3ccc(Br)cc3)n2Cc2ccccc2)CC1 [NCGC00415715-01] | 7.5 | 
29 | O=C(CC1C(=O)N(Cc2ccccc2)C(=S)N1CCN1CCOCC1)Nc1ccc(F)cc1 (centres unmarked) [MLS000672078-01] | 5.31 | 
30 | O=C(Nc1cc(Cl)ccc1O)c1cc2nc(-c3ccc4c(c3)OCO4)cc(C(F)(F)F)n2n1 [NCGC00164969-01] | 2.66 | 
31 | N#Cc1c2c(c(NCc3ccco3)n3c1nc1ccccc13)CCC2 [MLS000109113-01] | 2.37 | 
32 | CSc1cccc(NC(=O)Cn2c(-c3ccc(F)cc3)nc(C)c(CCO)c2=O)c1 [NCGC00470986-01] | 13.3 | 
33 | CCOc1ccccc1NC(=O)C1CCN([S+](=O)([O-])c2c(C)noc2/C=C/c2ccco2)CC1 [NCGC00109315-01] | 15 | 
34 | COc1ccc(-n2cc(CNC3CCN(C)CC3)c(-c3cccc(F)c3)n2)cc1 [MLS000732463-01] | 10.6 | 
35 | COc1ccc(NC(=O)c2c(C)oc3ccc(O)c(CN4CCCC(C)C4)c23)cc1Cl (centres unmarked) [NCGC00115530-01] | 0.944 | 
36 | COc1ccc2c(c1)OC(C)(C)[C@@H](c1ccccc1)[C@@H]2c1ccc(OCCN2CCCC2)cc1 [NCGC00181100-01] | 6.68 | 
37 | Cc1cc(Nc2ccc(Br)cc2)n2nc(C)nc2n1 [MLS000116653-01] | 7.5 | 
38 | COc1ccc(NC(=O)Cn2cccc2-c2nc(-c3ccc(OC)c(F)c3)no2)cc1 [NCGC00445480-01] | 4.73 | 
39 | Cc1ccc(C2Cn3nnc(-c4noc(-c5n[nH]c6c5CCCC6)n4)c3CO2)cc1 (centres unmarked) [NCGC00454353-01] | 13.3 | 
40 | O=C(Cc1ccc(Cl)cc1)NCc1nnc2cc(-c3nc(C4CC4)no3)ccn12 [NCGC00457746-01] | 7.5 | 
41 | O=C(NCCCN1CCc2ccccc2C1)C1Cn2cccc2C(=O)N1Cc1ccccc1 (centres unmarked) [NCGC00456658-01] | 9.44 | 
42 | O=C(Nc1ccc(F)cc1)N1CCOc2ccc(CN3CCc4ccccc4C3)cc2C1 [NCGC00471233-01] | 8.41 | 
43 | Oc1ccc(-c2nc(C3CC3)nc3c2CN(CC2CCCCC2)CC3)cc1 [NCGC00480438-01] | 6.68 | 
44 | Cc1ccccc1OCCSc1nc2ccc(NC(=O)c3ccccc3)cc2s1 [NCGC00118500-01] | 15 | 
45 | COc1ccc(NC(=O)c2sc3nc4c(c(-c5ccc(OC)cc5)c3c2N)C(=O)CC(C)(C)C4)cc1 [NCGC00100714-01] | 1.88 | 
46 | CCOC(=O)c1[nH]c(C)c(CCC(=O)N2CCN(c3cc(C)ccc3C)CC2)c1C [NCGC00134586-01] | 1.33 | 
47 | Clc1ccc(C(Cn2ccnc2)OCc2csc3c(Cl)cccc23)c(Cl)c1 (centres unmarked) [MLS002154122-01] | 2.37 | 
48 | O=C1N=C(NC2CCCC2)C2(CCN(Cc3ccccc3)C2)N1c1cc(F)cc(F)c1 (centres unmarked) [NCGC00374299-01] | 7.5 | 
49 | COc1cc2c(cc1OCc1ccccc1)NC(=O)C21CCN(c2ccccn2)CC1 [NCGC00416940-01] | 15.3 | 
50 | COc1ccc2c(c1OC)C(=O)N1N=C(c3ccc(O)cc3)CC21 (centres unmarked) [MLS000570475-01] | 16.8 | 
51 | CCOCCCNc1nc2cc(OC)c(OC)cc2c2nc(-c3ccccc3)nn12 [NCGC00112857-01] | 0.211 | 
52 | CCCc1nnc(C[C@@H]2C[C@@H](C(C)C)[C@H](CN3CCC[C@H]3CO)C=C2C)o1 [NCGC00392769-01] | 17.2 | 

Row | Structure (SMILES) | AC50 (read-out: AC50) [µM] | AC50 [µM]
53 | O=C(NNc1nc(-c2ccc(Br)cc2)cs1)c1ccco1 [MLS000699189-01] | 5.31 | 
54 | O=S(=O)(c1ccc(F)cc1)N1CCN(C(S)=NC2CC2)CC1 [MLS002161026-01] | 3.35 | 
55 | CSc1cccc(Nc2nc3c([S+](=O)([O-])c4ccccc4)nnn3c3ccc(Cl)cc23)c1 [NCGC00112212-01] | 1.88 | 
56 | O=c1oc2c(CN3CCOCC3)c(O)ccc2cc1-c1ccccc1 [NCGC00135757-01] | 9.44 | 
57 | CN1CC2(CCCN(CC3CC3)C2)c2cc(C(=O)NCCOc3ccccc3)ccc21 (centres unmarked) [NCGC00419362-01] | 17.2 | 
58 | COc1cc(-c2nc(-c3c(C)noc3C)cc3c2cc(C)n3CCN(C)C)ccn1 [NCGC00417201-01] | 17.2 | 
59 | COc1ccc(CCNc2nc3cc(OC)c(OC)cc3c3nc(-c4ccccc4)nn23)cc1OC [NCGC00112847-01] | 2.37 | 
60 | Cc1noc(-c2cccs2)c1C(=O)NC(C)c1cccc2ccccc12 (centres unmarked) [NCGC00358764-02] | 0.668 | 
61 | CN(C)C(C(=O)N1CCC(F)(F)CC1)c1ccccc1F (centres unmarked) [NCGC00444487-01] | 15 | 
62 | CCOc1ccc(-c2cc3nc(C4CCN(C(=O)OC(C)(C)C)CC4)c(C(=O)Nc4ccc(C(=O)OC)cc4)cn3n2)cc1 [NCGC00110849-01] | 4.73 | 
63 | Fc1ccc(N2CCN(Cc3cccn3-c3nnc(N4CCN(C5CCCCC5)CC4)s3)CC2)cc1 [NCGC00127052-01] | 11.9 | 
64 | O=C(NC1CC1)c1ccccc1OCC1CCCN(Cc2cccc3[nH]ccc23)C1 (centres unmarked) [NCGC00427156-01] | 5.96 | 
65 | CCN1CCN(C(=O)c2ccc3c(c2)N(Cc2c(F)cccc2Cl)C(=O)c2ccccc2S3)CC1 [NCGC00108184-01] | 0.00842 | 
66 | CC(=O)N1CCc2cc(Br)cc(S(=O)(=O)N3CCCCCC3)c21 [MLS000086258-01] | 5.31 | 
67 | CCOC(=O)c1c(N)sc2c1CCN(Cc1ccccc1)C2 [NCGC00159451-02] | 5.31 | 
68 | CCOc1ccc(CN2C(=O)c3ccccc3Sc3ccc(C(=O)N4CCC5(CC4)OCCO5)cc32)cc1 [NCGC00108218-01] | 4.22 | 
69 | Cc1ccc(O)c(CN2CCN(c3ccccc3)CC2)c1 [MLS000084753-01] | 2.99 | 
70 | COc1ccccc1CNC[C@H]1O[C@H](Cc2cc(CN(C)Cc3ccccc3)on2)CC[C@@H]1O [NCGC00393289-01] | 2.99 | 
71 | Cc1ccc(C(=O)N2CCC(c3c[nH]c4ccccc34)(c3c[nH]c4ccccc34)CC2)cc1 [NCGC00113768-01] | 8.41 | 
72 | O=C(NC1CC1)c1ccc(CSCc2cccc(F)c2)o1 [MLS000120194-01] | 8.41 | 
73 | COc1ncc(-c2cc(C(=O)NCc3c(C)cc(C)[nH]c3=O)c3c(c2)N(C(C)C)CCO3)cn1 [NCGC00416983-01] | 9.44 | 
74 | CCC(C)(C)n1nnnc1C(c1cc2cccc(C)c2nc1O)N1CCN(C(=O)c2ccco2)CC1 (centres unmarked) [MLS000073230-01] | 6.68 | 
75 | COC(=O)C1=C(c2ccc(-c3ccccc3)c(F)c2)C[C@@H]2CC[C@H]1N2C(=O)NCc1cccc2ccccc12 [MLS002302696-01] | 10.6 | 
76 | COc1cccc([S+](=O)([O-])N2CCC3(CC2)CC(N(C)Cc2ccccc2)CCO3)c1 (centres unmarked) [NCGC00453781-01] | 8.41 | 
77 | COc1ncccc1-c1nc(-c2c(C)noc2C)cc2c1cc(-c1ccccc1)n2C [NCGC00417163-01] | 13.7 | 
